Measured values taken from patent publication US8242160B2, “Inhibitors of ubiquitin E1” (The United States of America, as represented by the …, priority 2005, dated 2012).
Where a SMILES comes first, the peptide text is derived from it. [ ]: non-standard residue; d: D form. The star is where a group is joined. Nle = CCCC[C@H](N)C(=O)O; Cbz = O=C(OCc1ccccc1)*

Legend:
IκBα = assay: TNFα-induced IκBα degradation in cells; type: cell-based
Nedd4 = assay: In vitro autoubiquitination of HECT E3 Nedd4; type: biochemical
Method: It was then evaluated whether 4-[4-(5-nitro-furan-2-ylmethylene)-3,5-dioxo-pyrazolidin-1-yl]-benzoic acid methyl acid blocks autoubiquitination of both RING finger E3s (Mdm2) and HECT E3s (Nedd4) in vitro.
5 pmole per experimental point of bacterially expressed GST-Mdm2 (or GST-Nedd) is coupled to glutathione Sepharose (GS) for 30 minutes at room temperature with tumbling, followed by 3× wash with 50 mM Tris pH 7.5. Following this, 20 μl of 1× buffer is added (40 μl 10× reaction buffer*, 40 μl 10× PCK**, 320 μl dH2O). The test compound in DMSO is then added to the desired concentration with an equal volume of DMSO used as a control. Samples are incubated with shaking for 1 hr at 23° C. To carry out the reaction, a pre-made cocktail of Rabbit E1 (Calbiochem #6620700)/UbCH5B/^32P Ub cocktail (1 μl/0.5 μl/1 μl) is added followed by 15 minutes shaking at 30° C. The reaction is terminated by addition of 8 μl 4× reducing SDS-PAGE loading buffer. After dissociating proteins from the beads at 100° C. for 2 minutes, samples are resolved on 6% PAGE followed by exposure of the dried gel to phosphor screen. Note: ^32P Ub is derived from GST-Ub that has been engineered to include a PKA phosphorylation site. This fusion protein is purified on glutathione Sepharose, phosphorylated, following this, the ^32P Ub ubiquitin is cleaved and purified away from the thrombin.

cyclin E = assay: Degradation of in vitro translated cyclin E in S-100 cytosolic extract; type: biochemical
Source text: Cytosolic extracts from cells (S-100) contain all the components for ubiquitination and proteasomal degradation. To further evaluate 4-[4-(5-nitro-furan-2-ylmethylene)-3,5-dioxo-pyrazolidin-1-yl]-benzoic acid methyl acid, we made use of in vitro translated cyclin E, which is degraded in S-100 in a time-dependent manner (FIG. 3, upper panel, lanes 1-4).

In the case of `CCCC[C@@H](C=O)NC(=O)[C@H](CC(C)C)NC(=O)[C@H](CC(C)C)NC(C)=O` [ALLN, reference compound] (Ac-Leu-Leu-[Nle]-aldehyde), the “TNFα-induced IκBα degradation” value (IκBα) is reported as “prevents TNFα-induced IκBα degradation”.

With `O=c1nc2n(-c3cccc(Cl)c3)c3ccc([N+](=O)[O-])cc3cc-2c(=O)[nH]1` [98CO7, 10-(-3-chloro-phenyl)-7-nitro-10H-pyrimido[4,5-b]quinoline-2,4-dione, reference compound] the “autoubiquitination of Nedd4” value (Nedd4) was “only has very moderate effects”.

With `CC(C)C[C@@H](C=O)NC(=O)[C@H](CC(C)C)NC(=O)[C@H](CC(C)C)NC(=O)OCc1ccccc1` [MG132, reference compound] (Cbz-Leu-Leu-Leu-aldehyde) the “cyclin E degradation in S-100” value (cyclin E; no exogenous E1) was “block cyclin E degradation” and the “cyclin E degradation in S-100 after addition of purified exogenous E1” value (cyclin E; purified exogenous E1 added to the reaction mixture) was “unable to overcome the block in cyclin E degradation”.
